From US9770452B2, “Quinoxaline derivatives as GPR6 modulators” (Takeda Pharmaceutical Company Limited, priority 2012, dated 2017)

Molecular target: T1, GPR6 receptor (Homo sapiens, UniProt P46095)
T1 construct: expressed in transfected cells
Test: Inhibition of cAMP Activity of GPR6 In Vitro Assay (CHO-K1 cells, HTRF cAMP)
Assay type: cell-based
Details: compounds of Compound Table 1; inhibition of constitutive cAMP activity of GPR6 expressed in CHO-K1 cells; approximate IC50; read-out: IC50
Method: Inhibition of cAMP Activity of GPR6 In Vitro Assay
This cell based assay measures the ability of compounds to inhibit the constitutive cAMP activity of GPR6 receptor expressed in CHO-K1 cells. CHO cells were stably expressed with GPR6 receptor, whose expression is controlled by a tetracycline inducable element. The cells were cultured in medium containing F12K, 10% FBS, 1% Penn/Strep, 200 ug/mL Hygromycin. GPR6 receptor expression was induced for 20 hrs with 1 μg/ml doxycycline (sigma D9891) in growth media. After addition of doxycycline cells were plated at a density of 250-500 cells per well in half-volume black clear bottom plates (Costar) and place in an incubator (37°, 5% C(O)2) for 20 hours prior to cAMP assays.
Culture media was removed from cells and they were washed with 50 μL of Ringer's Buffer (MgCl2 0.047 mg/mL, NaH2PO4 0.18 mg/mL, Na2HPO4 0.1 mg/mL, KCl 0.34 mg/mL, NaHC(O)3 1.26 mg/mL, D-glucose 1.8 mg/mL, NaCl 7 mg/mL; pH=7.4). Compounds suspended in DMSO were diluted in Ringer's Buffer containing 0.5% fatty acid free BSA and incubated on cells for 45 min at […] and 5% C(O)2. After incubation cells were incubated for 10 min at room temp with Eu-cAMP tracer solution from a Perkin Elmer Lance HTRF UltracAMP assay kit (TRF0264). Then ULight™-anti-cAMP solution from the Lance HTRF kit was added and incubated on a shaker at room temp for 1 hour prior to HTRF detection in a BMG PolarStar Omega.
IC50 curves were generated with a four-parameter logistic equation using GraphPad Prism 5.03.

T1 sequence (P46095 whole entry): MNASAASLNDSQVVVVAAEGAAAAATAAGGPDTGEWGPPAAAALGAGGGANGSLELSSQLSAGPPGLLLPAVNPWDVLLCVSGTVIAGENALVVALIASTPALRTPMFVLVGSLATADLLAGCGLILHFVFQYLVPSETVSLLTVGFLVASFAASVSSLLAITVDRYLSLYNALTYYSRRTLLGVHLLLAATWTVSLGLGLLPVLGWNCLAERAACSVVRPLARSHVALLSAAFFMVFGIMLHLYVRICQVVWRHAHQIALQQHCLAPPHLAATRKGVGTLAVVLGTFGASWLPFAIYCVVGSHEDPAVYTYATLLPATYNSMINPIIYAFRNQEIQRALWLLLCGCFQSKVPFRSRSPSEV

Row | Substance | IC50 [nM]
1 | 1-(4-((1-(2-(cyclopropylamino)pyrido[3,4-b]pyrazin-3-yl)piperidin-4-yl)oxy)phenyl)ethanone, 2,2,2-trifluoroacetic acid salt [Cpd 582] | 7
2 | 2-(4-(2,4-difluorobenzyl)piperidin-1-yl)-N-(2,2-difluoroethyl)pyrido[3,4-b]pyrazin-3-amine [Cpd 428] | 20
3 | 2-(4-(2,4-difluorophenoxy)piperidin-1-yl)-N-isopropylpyrido[3,4-b]pyrazin-3-amine [Cpd 656] | 14
4 | 2-(4-(4-chloro-2-fluorophenoxy)piperidin-1-yl)-3-(isopropylamino)quinoxaline-6-carbonitrile, hydrogen chloride salt [Cpd 626] | 90
5 | 2-((1-(2-(cyclopropylamino)pyrido[3,4-b]pyrazin-3-yl)piperidin-4-yl)oxy)benzonitrile [Cpd 574] | 4810
6 | 2-((2,2-difluoroethyl)amino)-3-(4-(2,4-difluorophenoxy)piperidin-1-yl)-N,N-dimethylpyrido[3,4-b]pyrazine-7-carboxamide, 2,2,2-trifluoroacetic acid salt [Cpd 649] | 44
7 | 2-((2,2-difluoroethyl)amino)-3-(4-(2,4-difluorophenoxy)piperidin-1-yl)pyrido[3,4-b]pyrazine-7-carbonitrile, 2,2,2-trifluoroacetic acid salt [Cpd 646] | 538
8 | 2-((2,2-difluoroethyl)amino)-3-(4-(2,4-difluorophenoxy)piperidin-1-yl)quinoxaline-6-carbonitrile [Cpd 513] | 71
9 | 2-(cyclobutylamino)-3-(4-(2,5-dichlorobenzyl)piperazin-1-yl)quinoxaline-6-carbonitrile, 2,2,2-trifluoroacetic acid salt [Cpd 336] | 960
10 | 2-(cyclopropylamino)-3-(4-(2,4-difluorobenzyl)piperazin-1-yl)pyrido[3,4-b]pyrazine-5-carbonitrile, 2,2,2-trifluoroacetic acid salt [Cpd 612] | 114
11 | 2-(cyclopropylamino)-3-(4-(2,4-difluorobenzyl)piperidin-1-yl)quinoxaline-6-carbonitrile, 2,2,2-trifluoroacetic acid salt [Cpd 416] | 1510
12 | 2-(cyclopropylamino)-3-(4-(2,4-difluorophenoxy)piperidin-1-yl)-N,N-dimethylpyrido[3,4-b]pyrazine-7-carboxamide [Cpd 597] | 89
13 | 2-(cyclopropylamino)-3-(4-(2,5-dichloroisonicotinoyl)piperazin-1-yl)quinoxaline-6-carbonitrile [Cpd 265] | 300
14 | 2-(cyclopropylamino)-3-(4-(2,5-difluorobenzyl)piperazin-1-yl)quinoxaline-6-carbonitrile, 2,2,2-trifluoroacetic acid salt [Cpd 257] | 310
15 | 2-(cyclopropylamino)-3-(4-(2-fluoro-4-methoxybenzyl)piperazin-1-yl)-N,N-dimethylpyrido[3,4-b]pyrazine-7-carboxamide, 2,2,2-trifluoroacetic acid salt [Cpd 614] | 66
16 | 2-(cyclopropylamino)-3-(4-(2-fluoro-4-methoxybenzyl)piperazin-1-yl)pyrido[3,4-b]pyrazine-5-carbonitrile, 2,2,2-trifluoroacetic acid salt [Cpd 613] | 92
17 | 2-(cyclopropylamino)-3-(4-(2-fluoro-4-methoxyphenoxy)piperidin-1-yl)pyrido[3,4-b]pyrazine-5-carbonitrile, 2,2,2-trifluoroacetic acid salt [Cpd 605] | 36
18 | 2-(cyclopropylamino)-3-(4-((2,4-difluorophenyl)fluoromethyl)piperidin-1-yl)quinoxaline-6-carbonitrile, 2,2,2-trifluoroacetic acid salt [Cpd 480] | 72
19 | 2-(cyclopropylamino)-3-(4-((2,5-dichlorophenyl)sulfonyl)piperazin-1-yl)quinoxaline-6-carbonitrile [Cpd 226] | 570
20 | 2-(cyclopropylamino)-3-(4-((2,5-dimethoxyphenyl)sulfonyl)piperazin-1-yl)quinoxaline-6-carbonitrile, 2,2,2-trifluoroacetic acid salt [Cpd 329] | 1300
21 | 2-(cyclopropylamino)-3-(4-((2-fluorophenyl)sulfonyl)piperazin-1-yl)quinoxaline-6-carbonitrile, 2,2,2-trifluoroacetic acid salt [Cpd 241] | 650

Row | Substance | IC50 [nM]
22 | 2-(cyclopropylamino)-3-(4-((4-(trifluoromethoxy)phenyl)sulfonyl)piperazin-1-yl)quinoxaline-6-carbonitrile, 2,2,2-trifluoroacetic acid salt [Cpd 283] | 420
23 | 2-(cyclopropylamino)-3-(4-(m-tolylsulfonyl)piperazin-1-yl)quinoxaline-6-carbonitrile [Cpd 239] | 4740
24 | 2-(cyclopropylamino)-3-(4-(phenylsulfonyl)piperazin-1-yl)quinoxaline-6-carbonitrile [Cpd 162] | 4630
25 | 2-(cyclopropylamino)-3-(4-tosylpiperazin-1-yl)quinoxaline-6-carbonitrile [Cpd 240] | 4590
26 | 3-(1-(2-(cyclopropylamino)pyrido[3,4-b]pyrazin-3-yl)piperidine-4-carbonyl)-4-fluorobenzonitrile, 2,2,2-trifluoroacetic acid salt [Cpd 587] | 78
27 | 3-(1-(7-bromo-2-(cyclopropylamino)pyrido[3,4-b]pyrazin-3-yl)piperidine-4-carbonyl)-4-fluorobenzonitrile [Cpd 602] | 146
28 | 3-(4-(2,4-difluorobenzyl)piperazin-1-yl)-2-(isopropylamino)-N,N-dimethylpyrido[3,4-b]pyrazine-7-carboxamide, 2,2,2-trifluoroacetic acid salt [Cpd 634] | 6
29 | 3-(4-(2,4-difluorobenzyl)piperazin-1-yl)-N-isopropylpyrazino[2,3-d]pyridazin-2-amine 2,2,2-trifluoroacetate [Cpd 650] | 1000
30 | 3-(4-(2,4-difluorobenzyl)piperidin-1-yl)-2-((2-methoxyethyl)amino)quinoxaline-6-carbonitrile [Cpd 518] | 24
31 | 3-(4-(2,4-difluorobenzyl)piperidin-1-yl)-2-(isopropylamino)quinoxaline-6-carbonitrile [Cpd 461] | 20
32 | 3-(4-(2,4-difluorobenzyl)piperidin-1-yl)-N-(2-methoxyethyl)pyrido[3,4-b]pyrazin-2-amine, 2,2,2-trifluoroacetic acid salt [Cpd 519] | 250
33 | 3-(4-(2,4-difluorophenoxy)piperidin-1-yl)-N-(2-methoxyethyl)pyrido[3,4-b]pyrazin-2-amine, 2,2,2-trifluoroacetic acid salt [Cpd 525] | 29
34 | 3-(4-(2,4-difluorophenoxy)piperidin-1-yl)-N-isopropylpyrazino[2,3-d]pyridazin-2-amine, 2,2,2-trifluoroacetic acid salt [Cpd 632] | 28
35 | 3-(4-(2,4-difluorophenoxy)piperidin-1-yl)-N-isopropylpyrido[3,4-b]pyrazin-2-amine, 2,2,2-trifluoroacetic acid salt [Cpd 620] | 18
36 | 3-(4-(2,5-dichlorobenzyl)piperazin-1-yl)-2-(isoxazol-3-ylamino)quinoxaline-6-carbonitrile, 2,2,2-trifluoroacetic acid salt [Cpd 340] | 15400
37 | 3-(4-(2,5-dichlorobenzyl)piperazin-1-yl)-N-(1,2,4-triazin-3-yl)quinoxalin-2-amine, 2,2,2-trifluoroacetic acid salt [Cpd 177] | 17800
38 | 3-(4-(2,5-dichlorobenzyl)piperazin-1-yl)-N-(2-ethoxyethyl)quinoxalin-2-amine, 2,2,2-trifluoroacetic acid salt [Cpd 167] | 3330
39 | 3-(4-(2,5-dichlorobenzyl)piperazin-1-yl)-N-(pyridin-4-yl)quinoxalin-2-amine, 2,2,2-trifluoroacetic acid salt [Cpd 214] | 1470
40 | 3-(4-(2,5-dichlorobenzyl)piperazin-1-yl)-N-(pyrimidin-4-yl)quinoxalin-2-amine, 2,2,2-trifluoroacetic acid salt [Cpd 174] | 1670
41 | 3-(4-(2,5-dichlorobenzyl)piperazin-1-yl)-N-(tetrahydro-2H-pyran-4-yl)quinoxalin-2-amine, 2,2,2-trifluoroacetic acid salt [Cpd 171] | 1570
42 | 3-(4-(2,5-difluorobenzoyl)piperidin-1-yl)-2-(isopropylamino)-N,N-dimethylpyrido[3,4-b]pyrazine-7-carboxamide, 2,2,2-trifluoroacetic acid salt [Cpd 635] | 40
